Here are results for 26 compounds from publication PMC4300089, “Structure-Guided Design of Selective Epac1 and Epac2 Agonists” (PLoS Biology, 2015).

One assay deals with T1, Epac2^Δ280 (Mus musculus, UniProt Q9EQZ6).
T1 construct: made in house
T1 sequence (Q9EQZ6 281-993 isoform Q9EQZ6-3): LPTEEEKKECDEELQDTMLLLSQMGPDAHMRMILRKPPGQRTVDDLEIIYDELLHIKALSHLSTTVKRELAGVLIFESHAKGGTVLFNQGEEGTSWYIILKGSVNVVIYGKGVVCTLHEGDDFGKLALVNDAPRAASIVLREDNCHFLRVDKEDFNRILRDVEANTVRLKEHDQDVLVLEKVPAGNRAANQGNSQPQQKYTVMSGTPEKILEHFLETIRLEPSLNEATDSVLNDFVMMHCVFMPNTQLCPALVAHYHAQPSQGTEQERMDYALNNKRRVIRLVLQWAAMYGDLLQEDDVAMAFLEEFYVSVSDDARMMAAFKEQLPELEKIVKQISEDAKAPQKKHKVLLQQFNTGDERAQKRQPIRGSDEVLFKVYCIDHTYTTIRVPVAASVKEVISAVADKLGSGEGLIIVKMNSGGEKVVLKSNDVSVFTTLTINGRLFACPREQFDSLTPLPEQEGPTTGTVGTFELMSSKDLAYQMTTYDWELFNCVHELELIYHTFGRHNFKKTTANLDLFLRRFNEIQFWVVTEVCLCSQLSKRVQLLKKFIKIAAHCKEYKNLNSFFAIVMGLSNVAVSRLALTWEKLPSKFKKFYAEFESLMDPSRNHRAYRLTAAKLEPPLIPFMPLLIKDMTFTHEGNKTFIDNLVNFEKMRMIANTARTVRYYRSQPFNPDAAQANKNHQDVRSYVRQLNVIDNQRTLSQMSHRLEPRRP
In words: Epac activation assay (Rap1B•mGDP fluorescence nucleotide exchange), Epac2^Δ280. In kind it is biochemical. The following applies: Epac2^Δ280; for Rel. kmax: maximal activity relative to cAMP. As to the method: Murine Epac2 was used as all previous structural studies were performed with it.
The activity of Epac was determined by a fluorescence assay. […] The fluorescence intensity of Rap1B•mGDP is approximately twice that of free mGDP, and thus, nucleotide exchange can be observed as a decay in fluorescence upon the addition of excess unlabeled GDP.

The target of a further assay is T2, Epac1 (Homo sapiens, UniProt O95398).
T2 construct: made in house
T2 sequence (O95398 150-881 isoform O95398-3): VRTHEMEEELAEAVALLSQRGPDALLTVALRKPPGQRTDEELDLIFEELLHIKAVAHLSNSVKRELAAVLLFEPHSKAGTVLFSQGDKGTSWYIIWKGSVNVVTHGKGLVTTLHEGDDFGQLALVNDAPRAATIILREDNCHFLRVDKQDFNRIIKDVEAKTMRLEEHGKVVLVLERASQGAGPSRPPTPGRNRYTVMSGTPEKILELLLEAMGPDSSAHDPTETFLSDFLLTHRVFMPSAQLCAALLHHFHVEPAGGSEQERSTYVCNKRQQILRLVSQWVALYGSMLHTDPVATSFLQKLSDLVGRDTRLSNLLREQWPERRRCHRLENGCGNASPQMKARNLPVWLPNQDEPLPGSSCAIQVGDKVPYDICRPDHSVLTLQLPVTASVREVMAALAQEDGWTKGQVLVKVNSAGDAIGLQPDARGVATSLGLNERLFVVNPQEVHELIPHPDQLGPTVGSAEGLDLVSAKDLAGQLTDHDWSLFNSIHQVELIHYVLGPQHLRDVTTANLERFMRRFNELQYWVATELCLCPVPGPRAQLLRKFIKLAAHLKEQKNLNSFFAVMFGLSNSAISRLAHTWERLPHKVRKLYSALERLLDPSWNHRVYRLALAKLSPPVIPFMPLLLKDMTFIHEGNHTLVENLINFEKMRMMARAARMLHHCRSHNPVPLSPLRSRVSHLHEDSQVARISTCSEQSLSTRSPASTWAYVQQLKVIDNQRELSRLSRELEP
In words: Epac activation assay, Epac1. It counts as biochemical. The following applies: Epac1; for Rel. kmax: maximal activity relative to cAMP.

By AC50 is commonly meant the concentration giving half of the maximal activity seen. A higher AC50 goes with weaker potency. On to `Nc1ncnc2c1nc(SCc1ccccc1)n2[C@H]1C[C@@H]2O[P@@](O)(=S)OC[C@H]2O1` [S-221, Sp-8-BnT-2′-dcAMPS], for which, on Epac2^Δ280, the AC50 amounted to 10 µM and the Rel. kmax was determined as 1.5. At Epac1, this compound came in with an AC50 of 280 µM and a Rel. kmax of 0.06.

For `Nc1ncnc2c1nc(O)n2[C@@H]1O[C@@H]2CO[P@](O)(=S)O[C@H]2[C@H]1O` [S-130, Sp-8-OH-cAMPS], the concentration at half-maximal activity (AC50) at Epac2^Δ280 is 1.3 µM; at Epac1 it was 80 µM. Also, the Rel. kmax at Epac2^Δ280 is given as 1.4; on Epac1 it was 0.6.

In the case of `Nc1ncnc2c1nc(Br)n2[C@@H]1O[C@@H]2CO[P@](O)(=S)O[C@H]2[C@H]1Cl` [S-013, Sp-8-Br-2′-Cl-cAMPS], at Epac2^Δ280, the AC50 was 8 µM and the Rel. kmax amounted to 0.5. At Epac1, this compound came in with a concentration at half-maximal activity (AC50) of 110 µM and a Rel. kmax of 0.1.

As for `Nc1ncnc2c1nc(NC1CCCCC1)n2[C@@H]1O[C@@H]2COP(=O)(O)O[C@H]2[C@H]1O` [L-013, 8-cHA-cAMP], at Epac2^Δ280, half-maximal activity (AC50) was put at 4.7 µM and the Rel. kmax came out at 0.3. Further, on Epac1, the activity was half-maximal at 50 µM (AC50) and the Rel. kmax was determined as 0.3.

Take `Nc1ncnc2c1nc(SCCc1ccccc1)n2[C@@H]1O[C@@H]2CO[P@](O)(=S)O[C@H]2[C@H]1O` [S-190, Sp-8-PheET-cAMPS]: the AC50 worked out at 0.14 µM at Epac2^Δ280 and 6 µM at Epac1. Moreover, the Rel. kmax on Epac2^Δ280 came to 0.4; on Epac1, 0.2.

For `Nc1ncnc2c1nc(Br)n2[C@@H]1O[C@@H]2COP(=O)(O)O[C@H]2[C@H]1F` [D-004, 8-Br-2′-F-cAMP], on Epac2^Δ280, the AC50 amounted to 14 µM and the Rel. kmax was 1.5. Moreover, at Epac1, the activity was half-maximal at 100 µM (AC50) and the Rel. kmax worked out at 0.4.

On Epac2^Δ280, `Nc1ncnc2c1nc(SCc1ccccc1Cl)n2[C@@H]1O[C@@H]2CO[P@](O)(=S)O[C@H]2[C@H]1O` [S-270, Sp-8-oCBnT-cAMPS] yielded an AC50 of 0.27 µM and a Rel. kmax of 3.1. Further, on Epac1, half-maximal activity (AC50) was put at 16 µM and the Rel. kmax was determined as 0.2.

Consider `CNc1nc2c(N)ncnc2n1[C@@H]1O[C@@H]2CO[P@](O)(=S)O[C@H]2[C@H]1Cl` [S-033, Sp-8-MeA-2′-Cl-cAMPS], for which, at Epac2^Δ280, the activity was half-maximal at 14 µM (AC50) and the Rel. kmax worked out at 0.7. On Epac1, this compound had an AC50 of 120 µM and a Rel. kmax of 0.1.

At Epac2^Δ280, `Nc1ncnc2c1nc(NCc1ccccc1)n2[C@@H]1O[C@@H]2COP(=O)(O)O[C@H]2[C@H]1O` [L-014, 8-BnA-cAMP] registered an AC50 of 1.9 µM and a Rel. kmax of 1.5. On Epac1, this compound had an AC50 of 30 µM and a Rel. kmax of 0.2.

Consider `CNc1nc2c(N)ncnc2n1[C@@H]1O[C@@H]2COP(=O)(O)O[C@H]2[C@H]1Cl` [D-001, 8-MeA-2′-Cl-cAMP], for which, on Epac2^Δ280, the AC50 came out at 45 µM and the Rel. kmax worked out at 2.2. Besides, at Epac1, the AC50 turned out to be 330 µM and the Rel. kmax is ~0.6?.

For `Nc1ncnc2c1ncn2[C@@H]1O[C@@H]2COP(=O)(O)O[C@H]2[C@H]1OCc1ccccc1` [Z-008, 2′-O-Bn-cAMP], the AC50 came out at 35 µM at Epac2^Δ280 and 75 µM on Epac1. The Rel. kmax is 0.4 on Epac2^Δ280 and 1.5 at Epac1.

On Epac2^Δ280, `Nc1ncnc2c1ncn2[C@@H]1O[C@@H]2COP(=O)(O)O[C@H]2[C@H]1N` [Z-003, 2′-NH2-cAMP] displayed an AC50 of 9 µM and a Rel. kmax of 0.9. Further, on Epac1, the AC50 came out at 80 µM and the Rel. kmax stood at 0.8.

Take `CO[C@@H]1[C@@H]2OP(=O)(O)OC[C@H]2O[C@H]1n1c(Sc2ccc(O)cc2)nc2c(N)ncnc21` [D-008, 8-pOHPT-2′-O-Me-cAMP]: the values for the AC50 on Epac2^Δ280 and on Epac1 were 1.5 µM and 1 µM, respectively. In addition, the Rel. kmax at Epac2^Δ280 is given as 2.2; at Epac1 it was 3.1.

For the compound `Nc1ncnc2c1ncn2[C@@H]1O[C@@H]2COP(=O)(O)O[C@H]2[C@H]1F` [Z-002, 2′-F-cAMP], the AC50 at Epac2^Δ280 stood at 25 µM; at Epac1 it was 1500 µM. At Epac2^Δ280, the Rel. kmax was found to be 1.0.

At Epac2^Δ280, `Nc1ncnc2c1nc([Se]Cc1ccccc1)n2[C@@H]1O[C@@H]2COP(=O)(O)O[C@H]2[C@H]1OCc1ccccc1` [D-012, 8-BnSe-2′-O-Bn-cAMP] displayed an AC50 of 4.6 µM and a Rel. kmax of 1.0. At Epac1, the activity was half-maximal at 38 µM (AC50) and the Rel. kmax is 0.9.

In the case of `COc1ccc(Sc2nc3c(N)ncnc3n2[C@@H]2O[C@@H]3COP(=O)(O)OC3[C@@H]2OC)cc1` (stereo partly drawn) [D-009, 8-pMeOPT-2′-O-Me-cAMP], on Epac2^Δ280, the AC50 came out at 2.8 µM and the Rel. kmax turned out to be 0.5. In addition, at Epac1, the AC50 came out at 2.3 µM and the Rel. kmax is given as 2.7.

With `O[C@@H]1[C@@H]2OP(O)(=S)OC[C@H]2O[C@H]1n1cnc2cc(Cl)c(Cl)cc21` (stereo partly shown) [S-400, Sp-5,6-DCl-cBIMPS], at Epac2^Δ280, the AC50 turned out to be 0.9 µM and the Rel. kmax worked out at 0.8. Further, on Epac1, the AC50 was 14 µM and the Rel. kmax came out at 1.0.

On to `Nc1ncnc2c1nc(Br)n2[C@@H]1O[C@@H]2CO[P@](O)(=S)O[C@H]2[C@H]1F` [S-012, Sp-8-Br-2′-F-cAMPS], for which, on Epac2^Δ280, the AC50 came to 9.8 µM and the Rel. kmax was found to be 1.2. On Epac1, this compound yielded a half-maximal activity concentration (AC50) of 75 µM and a Rel. kmax of 0.08.

On to `CO[C@H]1C2OP(=O)(O)OC[C@H]2O[C@H]1n1c(Br)nc2c(N)ncnc21` (stereo partly drawn) [D-005, 8-Br-2′-O-Me-cAMP], for which, at Epac2^Δ280, half-maximal activity (AC50) was put at 8 µM and the Rel. kmax is 1.6. Also, at Epac1, the AC50 was determined as 35 µM and the Rel. kmax came to 0.9.

As for `CNc1nc2c(N)ncnc2n1[C@H]1C[C@@H]2O[P@@](O)(=S)OC[C@H]2O1` [S-031, Sp-8-MeA-2′-dcAMPS], the AC50 at Epac2^Δ280 turned out to be 40 µM; at Epac1 it was 320 µM. Further, the Rel. kmax at Epac2^Δ280 turned out to be 1.7; at Epac1 it was 0.1.

For `Nc1ncnc2c1nc(NCCCCO)n2[C@@H]1O[C@@H]2COP(=O)(O)O[C@H]2[C@H]1O` [L-008, 8-OHBuA-cAMP], on Epac2^Δ280, half-maximal activity (AC50) was put at 2.6 µM and the Rel. kmax came to 1.6.

At Epac2^Δ280, `Nc1ncnc2c1nc(Sc1ccc(Cl)cc1)n2[C@@H]1O[C@@H]2COP([O-])(=S)O[C@H]2[C@H]1O.[Na+]` (stereo partly shown) [S-210, Sp-8-pCPT-cAMPS] gave an AC50 of 0.13 µM and a Rel. kmax of 0.7. Besides, at Epac1, the AC50 turned out to be 2.2 µM and the Rel. kmax is 0.5.

Regarding `Nc1ncnc2c1nc(Br)n2[C@@H]1O[C@@H]2COP(=O)(O)O[C@H]2[C@H]1Cl` [D-003, 8-Br-2′-Cl-cAMP], the AC50 was 11 µM at Epac2^Δ280 and 260 µM on Epac1. Also, the Rel. kmax on Epac2^Δ280 is given as 0.9; at Epac1 it was ~0.5?.

At Epac2^Δ280, `CO[C@H]1C2OP(O)(=S)OC[C@H]2O[C@H]1n1c(Sc2ccc(Cl)cc2)nc2c(N)ncnc21` (stereo partly shown) [S-211, Sp-8-pCPT-2′-O-Me-cAMPS] gave an AC50 of 1.4 µM and a Rel. kmax of 0.4. For the same compound, at Epac1, the AC50 was 7.3 µM and the Rel. kmax was determined as 1.9.

At Epac2^Δ280, `CCN(CC)c1nc2c(N)ncnc2n1[C@@H]1O[C@@H]2CO[P@](O)(=S)O[C@H]2[C@H]1O` [S-090, Sp-8-DEA-cAMPS] displayed an AC50 of 10 µM and a Rel. kmax of 4.1.

Regarding `CO[C@@H]1[C@@H]2OP(=O)(O)OC[C@H]2O[C@H]1n1c(O)nc2c(N)ncnc21` [D-010, 8-OH-2′-O-Me-cAMP], at Epac2^Δ280, the activity was half-maximal at 6.8 µM (AC50) and the Rel. kmax is reported as 0.5.
